# Test results: patent publication US20140057908A1, “Method of Treating Cancer” (Exelixis, Inc., priority 2010, published 2014)
# Experiments:
# [1] = tested on: pancreatic neuroendocrine tumor; experiment: murine pancreatic neuroendocrine tumor model; conditions: mouse, in vivo
# xenograft tumor models = experiment: xenograft tumor models; conditions: in vivo
# [2] = gravimetric vapor sorption (GVS) study; type: physicochemical; conditions: crystalline form; 25° C. and 90% humidity
# Experimental: A gravimetric vapor sorption (GVS) study was run using a standard procedure. Samples were run on a dynamic vapor sorption analyzer (Surface Measurement Systems) running DVSCFR software. Sample sizes were typically 10 mg. A moisture adsorption desorption isotherm was performed as outlined below. The standard isotherm experiment, performed at 25° C., is a two-cycle run, starting at 40% RH, increasing humidity to 90% RH, decreasing humidity to 0% RH, increasing humidity again to 90% RH, and finally decreasing humidity to 0% RH in 10% RH intervals.
# [3] = tested on: castration-resistant prostate cancer (CRPC) with bone metastases; experiment: adaptive phase 2 trial (NCT00940225), case studies of the first three CRPC patients with bone metastases; type: in vivo, human; conditions: for Bone scan (best response) / PSA (best response) / tALP (best response) / Hemoglobin (best response): 100 mg dose; for Hemoglobin (best response): change from baseline; for PSA: Week 18
# From the text: All patients provided informed consent before study screening.
smiles,measurement,setting,value
"COc1cc2c(Oc3ccc(NC(=O)C4(C(=O)Nc5ccc(F)cc5)CC4)cc3F)ccnc2cc1OCCCN1CCOCC1 [Compound 2, N-[3-fluoro-4-({6-(methyloxy)-7-[(3-morpholin-4-ylpropyl)oxy]quinolin-4-yl}oxy)phenyl]-N′-(4-fluorophenyl)cyclopropane-1,1-dicarboxamide]",overall survival,[1],substantially improves overall survival
same,tumor invasiveness and metastasis,[1],significantly reduces tumor invasiveness and metastasis
same,effect on tumors in xenograft tumor models,xenograft tumor models,causes tumor regression
same,weight gain (GVS),[2],2.5%
"COc1cc2nccc(Oc3ccc(NC(=O)C4(C(=O)Nc5ccc(F)cc5)CC4)cc3)c2cc1OC [Compound 1, N-(4-{[6,7-bis(methyloxy)quinolin-4-yl]oxy}phenyl)-N′-(4-fluorophenyl)cyclopropane-1,1-dicarboxamide]",overall survival,[1],substantially improves overall survival
same,tumor invasiveness and metastasis,[1],significantly reduces tumor invasiveness and metastasis
same,Bone scan (best response),[3]; Patient 1,Complete
same,PSA (best response),[3]; Patient 1,−78%
same,tALP (best response),[3]; Patient 1,−77%
same,Hemoglobin (best response),[3]; Patient 1,+1.4 g/dL
same,CT scan response,"[3]; Patient 1, Week 6",partial response (PR)
same,decrease in measurable target lesions (CT scan),"[3]; Patient 1, Week 6",33%
same,PSA,"[3]; Patient 1, baseline 430 ng/mL",93.5 ng/mL
same,PSA (best response),[3]; Patient 2,+61%
same,tALP (best response),[3]; Patient 2,−6%
same,Hemoglobin (best response),[3]; Patient 2,+1.8 g/dL
same,decrease in target lesions (CT scan),"[3]; Patient 2, Week 6",13%
same,Bone scan (best response),[3]; Patient 3,Near resolution
same,PSA (best response),[3]; Patient 3,−57%
same,tALP (best response),[3]; Patient 3,−77%
same,Hemoglobin (best response),[3]; Patient 3,+2.2 g/dL
same,decrease in measurable target lesions (CT scan),"[3]; Patient 3, Week 6",43%
same,PSA,"[3]; Patient 3, 2.4 ng/mL at screening",1.2 ng/mL
same,"bone lesions, summary of three metastatic CRPC patients",[3]; all three patients,near complete resolution of bone lesions
same,"uptake of radiotracer on bone scan, summary",[3]; all three patients,striking decrease in uptake of radiotracer on bone scan
same,effect on tumors in xenograft tumor models,xenograft tumor models,causes tumor regression
